Test results as given in patent US12709608B2, “4-amino pyrimidine compounds for the treatment of cancer” (University of Rochester, priority 2021, dated 2026).
Entries after “also recorded” stand apart in the source; their conditions may differ. Like-named read-outs stand apart in the source and are kept apart here.

Assays:
[1] = tested on: H3K27M DIPG cell lines (H3.3 K27M SF8628, H3.3 K27M DIPG-007, and H3.1 K27M SU-DIPGIV); experiment: Inhibition of DIPG cell growth (cytotoxic activity), 72 hours treatment; type: cell-based; details: Homo sapiens; three H3K27M mutant DIPG cell lines (SF8628, DIPG-007, SU-DIPGIV), treated for 72 hours
Procedure: Specifically, UR-8 and UR-17 induced dose dependent inhibition of the growth of K27M DIPG cells—To determine the potential of the UR-analog series, UR-8 and UR-17 were selected for initial studies on DIPG cell growth. Thus, three H3K27M DIPG cell lines (H3.3 K27M SF8628, H3.3 K27M DIPG-007, and H3.1 K27M SU-DIPGIV) were treated with GSK-J4 (R&D System), UR-8, and UR-17 for 72 hours.

[2] = Biodistribution in brainstem and serum of mice, HPLC analysis of tissue extracts; type: in vivo; details: for concentration at 3 h: ip, 3 hours after intraperitoneal injection
Text: Study of JMJD3 demethylase inhibitors. […] Because of its promising anti-tumor activities, GSK-J4 has been used to treat many kinds of tumors in preclinical models including T-cell acute lymphoblastic leukemia, acute myeloid leukemia, diffuse large B-cell lymphoma, neuroblastoma, prostate cancer, gastric cancer, and DIPG. The major challenge of GSK-J4 in clinical development is that GSK-J4 is a prodrug and is rapidly converted to the active drug […] in vivo (FIG. 1). […] The development of novel compounds such as UR-8 offered desirable properties including good cellular and brain transport which is essential to improving in vivo efficacy.
UR-8 was administered by intraperitoneal injection to mice that were euthanized at 3 hours following UR-8 administration. Their brains were immediately resected, the brainstem was dissected from the surrounding brain, and the serum was collected by cardiac puncture. […] GSK-J1 was highly detected in either serum and brainstem in the mice treated with GSK-J4 in compared to that of the mice treated with UR-8. GSK-J4 was not detected in any specimens from mice treated with GSK-J4.

[3] = tested on: SF8628 intracranial (brainstem) tumor; experiment: In vivo anti-tumor activity in patient-derived K27M DIPG xenografted mice; details: for Survival, log-rank test P, control vs. compound: vs vehicle control (DMSO)
Procedure: Mice with SF8628 intracranial (brainstem) tumor were randomized to four treatment groups: vehicle control (DMSO, n=7), GSK-J4 (100 mg/kg/day for 10 consecutive days, n=8), UR-8 (100 mg/kg/day for 10 consecutive days, n=8), and UR-17 (100 mg/kg/day for 10 consecutive days, n=8). FIG. 3 (A) Upper: Growth plots for intracranial tumors using tumor bioluminescence values. Lower: Corresponding tumor bioluminescence intensity overlay images for representative vehicle-treated, GSK-J4, UR-17, and UR-8-treated mice. FIG. 3 (B) Corresponding survival plots for each experiment. Statistical analysis was performed using a log-rank test: control vs. GSK-J4, **P=0.0094; control vs. UR-8, ***P=0.0002; control vs. UR-17, ***P=0.0008; GSK-J4 vs. UR-8, ***P=0.0008; UR-8 vs. UR-17, *P=0.0197. FIG. 3 (c) Effects of UR-8 on cell proliferation.
UR-8 inhibited tumor growth and prolonged survival of mice bearing human DIPG xenografts—Based on the biological effects of UR-analogs in vitro, it was hypothesized that UR-analogs would suppress tumor growth and increase survival in mice with orthotopic (brainstem) human DIPG xenografts. To determine in vivo anti-tumor activity of UR-analogs, the mice were implanted with SF8628 DIPG cells in the brainstem and were treated with 100 mg/kg of GSK-J4, UR-8, and UR-17 for 10 consecutive days.

[4] = SF8628 brainstem xenograft, 100 mg/kg for 10 consecutive days
[5] = SF8628 brainstem xenograft, 100 mg/kg/day for 10 consecutive days

Row | SMILES | IC50 [1] | Brain penetration ratio (UR-8) ([2]; brainstem concentration as % of serum concentration, analyte UR-8, UR-8 treated mice) | Kp at 3 h ([2]; mouse, brainstem relative to serum, intraperitoneal, brainstem concentration as % of serum concentration, analyte UR-8, UR-8 treated mice, read-out: Brain penetration ratio (UR-8)) | concentration at 3 h ([2]; mouse, brainstem, UR-8 treated mice, analyte UR-8, read-out: UR-8 concentration, Brainstem) | concentration at 3 h ([2]; mouse, serum, UR-8 treated mice, analyte UR-8, read-out: UR-8 concentration, Serum) | Survival benefit of treated mice [3, 4] | Survival, log-rank test P, GSK-J4 vs. UR-8 [3, 5] | Survival, log-rank test P, UR-8 vs. UR-17 [3, 5] | Survival, log-rank test P, control vs. compound [3, 5] | Therapeutic benefit compared with the other compounds ([3]; intracranial (brainstem) human DIPG xenografted mice, comparison with GSK-J4 / UR-17) | GSK-J1 concentration, Brainstem ([2]; GSK-J4 treated mice, analyte GSK-J1, 3 hours after administration) | GSK-J1 concentration, Serum ([2]; GSK-J4 treated mice, analyte GSK-J1, 3 hours after administration, intraperitoneal) | Brain penetration ratio (GSK-J1) ([2]; brainstem concentration as % of serum concentration, analyte GSK-J1, GSK-J4 treated mice) | Species found in brainstem tissue after GSK-J4 treatment ([2]; mice euthanized at 3 hours after completion of GSK-J4 treatment) | GSK-J4 detection in specimens from mice treated with GSK-J4 ([2]; serum and brainstem, HPLC) | Tumor growth rate (bioluminescence monitoring) [3, 4]
1 | OCCCNc1cc(N2CCc3ccccc3CC2)nc(-c2ccccn2)n1 [UR-8, 3-((2-(pyridin-2-yl)-6-(1,2,4,5-tetrahydro-3H-benzo[d]azepin-3-yl)pyrimidin-4-yl)amino)propan-1-ol] | 4 to 6 µM | 8.77 ± 2.37% | 0.0877 ± 0.0237 | 410 ± 244 ng/mL | 4460 ± 1580 ng/mL | significant benefit | 0.0008 | 0.0197 | 0.0002 | outperforming either GSK-J4 or UR-17; also recorded: greater anti-tumor activity and survival benefit than that obtained by GSK-J4 treatment |  |  |  |  |  | 
2 | CCOC(=O)CCNc1cc(N2CCc3ccccc3CC2)nc(-c2ccccn2)n1 [GSK-J4] |  |  |  |  |  | substantial survival benefit |  |  | 0.0094 |  | 141.5 ± 50.2 ng/mL | 31250 ± 18879 ng/mL | 0.61 ± 0.53% | only GSK-J1 | not detected | reduced tumor growth rate
